According to the supplement of paper PMC10307832:

Assays:
Assay in all cases: relative viability (nuclei count vs DMSO), 5 days (fraction); higher = more cells survive
Alpelisib + Decitabine = compound: Cc1nc(NC(=O)N2CCC[C@H]2C(N)=O)sc1-c1ccnc(C(C)(C)C(F)(F)F)c1 [Alpelisib] + Nc1ncn([C@H]2C[C@H](O)[C@@H](CO)O2)c(=O)n1 [Decitabine] (partner 2 µM)
Method in brief: (§1)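 Nuclei were stained with Hoechst during a one-step fixation (final 0.05% Triton X-100, 1% formaldehyde, 1 ug/ml Hoechst) carried out 5 days after dosing, then counted on 4× images. The cells, lung cancer lines in 1536-well plates, had been dosed by pin tool the day after seeding with one drug alone or a fixed anchor-drug dose plus five library-drug doses (not always all listed) in √10 steps. Relative viability is the nuclei count in treated wells divided by that in vehicle wells, and each value is the median of duplicate plates.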

Vemurafenib + Crizotinib = compound: CCCS(=O)(=O)Nc1ccc(F)c(C(=O)c2c[nH]c3ncc(-c4ccc(Cl)cc4)cc23)c1F [Vemurafenib] + C[C@@H](Oc1cc(-c2cnn(C3CCNCC3)c2)cnc1N)c1c(Cl)ccc(F)c1Cl [Crizotinib] (partner 1 µM)
Method in brief: as §1

Alpelisib + Palbociclib = compound: Cc1nc(NC(=O)N2CCC[C@H]2C(N)=O)sc1-c1ccnc(C(C)(C)C(F)(F)F)c1 [Alpelisib] + CC(=O)c1c(C)c2cnc(Nc3ccc(N4CCNCC4)cn3)nc2n(C2CCCC2)c1=O [Palbociclib] (partner 0.5 µM)
Method in brief: as §1

Alpelisib + Phenformin = compound: Cc1nc(NC(=O)N2CCC[C@H]2C(N)=O)sc1-c1ccnc(C(C)(C)C(F)(F)F)c1 [Alpelisib] + N=C(N)NC(=N)NCCc1ccccc1 [Phenformin] (partner 250 µM)
Method in brief: as §1

Cell Line	relative viability (Alpelisib + Decitabine; first compound 0.04 µM)	relative viability (Alpelisib + Decitabine; first compound 0.1265 µM)	relative viability (Alpelisib + Decitabine; first compound 0.4 µM)	relative viability (Alpelisib + Decitabine; first compound 1.265 µM)	relative viability (Alpelisib + Decitabine; first compound 4 µM)	relative viability (Vemurafenib + Crizotinib; first compound 0.03162 µM)	relative viability (Vemurafenib + Crizotinib; first compound 0.1 µM)	relative viability (Vemurafenib + Crizotinib; first compound 1 µM)	relative viability (Alpelisib + Palbociclib; first compound 0.04 µM)	relative viability (Alpelisib + Palbociclib; first compound 0.1265 µM)	relative viability (Alpelisib + Palbociclib; first compound 0.4 µM)	relative viability (Alpelisib + Palbociclib; first compound 1.265 µM)	relative viability (Alpelisib + Palbociclib; first compound 4 µM)	relative viability (Alpelisib + Phenformin; first compound 0.04 µM)	relative viability (Alpelisib + Phenformin; first compound 0.1265 µM)	relative viability (Alpelisib + Phenformin; first compound 0.4 µM)	relative viability (Alpelisib + Phenformin; first compound 1.265 µM)	relative viability (Alpelisib + Phenformin; first compound 4 µM)	relative viability (Vemurafenib + Crizotinib; first compound 0.3162 µM)
NCI-H838	0.405	0.422	0.508	0.438	0.359	0.761	0.783	0.928	0.246	0.222	0.24	0.18	0.182	0.523	0.507	0.549	0.41	0.355	
COR-L23	0.423	0.427	0.438	0.333	0.355	0.6	0.524	0.59	0.271	0.241	0.253	0.215	0.212	0.388	0.414	0.49	0.402	0.36	0.597
EMC-BAC-2	0.924		0.965	0.72	0.747	0.703	0.729	0.681	0.5	0.481	0.505	0.348	0.324	0.539	0.482	0.498	0.44	0.34	0.678
NCI-H3122	0.371	0.454	0.374	0.278	0.209	0.266	0.263	0.211	0.163	0.162	0.188	0.185	0.144	0.409	0.403	0.41	0.399	0.316	0.383
NCI-H2023	0.205	0.188	0.234	0.245	0.183	0.534	0.452	0.675	0.312	0.309	0.326	0.258	0.223	0.404	0.408	0.371	0.287	0.282	0.704
ChaGo-K-1	0.52	0.529	0.526	0.475	0.446	1.07	1.14	1.13	0.958	0.965	1	0.747	0.584	0.495	0.495	0.453	0.435	0.346	
NCI-H1944	0.429	0.44	0.413	0.37	0.384	1.03	0.816	1.06	0.303	0.302	0.345	0.241	0.221	0.194	0.214	0.182	0.16	0.138	1.09
H3255	0.632	0.603	0.65	0.448	0.467	0.883		0.808	0.333	0.321	0.333	0.296	0.264	0.352	0.375	0.336	0.25	0.335	0.865
NCI-H2087	0.311	0.203	0.325	0.26	0.135	0.844	1	0.79	0.301	0.237	0.246	0.257	0.193	0.491	0.483	0.501	0.36	0.284	
RERF-LC-KJ	0.668	0.638	0.706	0.5	0.536	0.838	0.834	0.922	1.1	1.03	1.16	0.759	0.928	0.427	0.394	0.433	0.345	0.33	0.832
